Measured values taken from US7807781B2, “Inhibitors of serine protease activity and their use in methods and compositions for treatment of viral infections” (The Regents of the University of Colorado, priority 1999, dated 2010).

B1: UTI: Human urinary trypsin inhibitor, a protein indistinguishable from ITI (protein, UniProt P02760 206-352, looked up)
Inter-alpha-trypsin inhibitor …: AVLPQEEEGSGGGQLVTEVTKKEDSCQLGYSAGPCMGMTSRYFYNGTSMACETFQYGGCMGNGNNFVTEKECLQTCRTVAACNLPIVRGPCRAFIQLWAFDAVKGKCVLFPYGGCQGNGNKFYSEKECREYCGVPGDGDEELLRFSN
modifications: Inter-alpha-trypsin inhibitor light chain

Tests used:
[1] = system: HIV-1 production in U1 cells; assay: U1 monocytic cell assay, IL-18-induced HIV-1 p24 antigen; format: cell-based
From the text: U1 monocytic cell assay. U1 cells are obtained from the AIDS Research and Reference Reagent Program, National Institute of Allergy and Infectious Diseases, NIH. U1 cells are maintained in T-175 polystyrene flasks (Falcon, Becton Dickinson, Franklin Lakes, N.J.) in medium and used when in log phase growth. Cells are counted in a hemacytometer, examined for viability by Trypan blue exclusion (>95% for all experiments) and resuspended in fresh medium at 2×10^6 per ml. Two-hundred fifty […] are added to wells of 24-well polystyrene tissue culture plates (Falcon), followed by the addition of medium or AAT to produce the final concentration to be tested in a volume of […]. After 1.0 hr of incubation (37° C., 5% CO2), 50 ml of medium (control) or stimulus diluted in medium are added to wells to produce the final concentration of stimulus to be tested. The final culture volumes are […] and contained 1×10^6 cells per ml. After 48 hr of incubation (37° C. and 5% CO2) 50 ml of 10% (vol/vol) Triton-X-100 (Fisher Scientific, Fair Lawn, N.J.) is added to each culture (final concentration of 1% vol/vol), and cultures are frozen and thawed once. This is followed by assay for HIV-1 p24 antigen by ELISA with a lower limit of detection of 31 pg/ml (NCI-Frederick Cancer Research and Development Center, Frederick, Md.). The disruption of cells due to the addition of Triton-X-100 and the freeze-thaw cycle produced cell lysates and enabled assessment of total (secreted and cell-associated) production of p24 antigen.
Data are presented as means±SEM. Group means are compared by ANOVA using Fisher's least significant difference. For data expressed as percent change, the values for p24 in control cultures (medium alone) are subtracted from those for each culture-containing stimulus. The p24 concentrations in cultures conducted in the presence of stimulus alone are set at 100%. Percent p24 in cultures containing stimulus and AAT are calculated by dividing the measured p24 by that present in cultures containing stimulus alone. The resultant fraction is expressed as a percent.
The U1 cell line is derived from human monocytic U937 cells into which 2 copies of HIV-1 provirus are incorporated into host genome. Exposing U1 cells to pro-inflammatory cytokines such as IL-18, IL-1, IL-6 and TNF, phorbol esters or hyperosmolarity results in the induction of HIV-1 as assessed by p24 antigen. Stimulation of U1 cells with 0.5 nM IL-18 induced large amounts of p24 antigen after 48 hr of incubation in 3 separate experiments. U1 cells cultured in medium alone (control) contained a mean of 41.3±11.5 pg/ml p24 antigen, which is increased 150-fold to 6,235±1,775 pg/ml p24 following stimulation with IL-18. […] At 1, 2 and 3 mg/ml AAT, the percent reductions observed compared to stimulation with IL-18 alone are 65±1.8, 93±3.0 and 98±1%, respectively.

NF-κB = assay: IL-18-induced NF-κB expression; format: cell-based; details: compared with IL-18 alone (lane 4)
[2] = system: HIV-1 strain A018A in MAGI-CCR-5 cells; format: cell-based; details: compared with FVYLI (FIG. 4); alone or in combination; not shown
[3] = system: HIV-infected CCRF-CEM and uninfected Molt-4 cells; details: cited from earlier work

Row | Molecule | effect on HIV production in MAGI cells [2] | other results
1 | Cc1cccc(Cc2nnc(C(=O)C(NC(=O)[C@@H]3CCCN3C(=O)[C@@H](NC(=O)OCc3ccccc3)C(C)C)C(C)C)o2)c1 (stereo partly shown) [P3 inh] |  | anti-HIV effect ([1]; same experimental condition as in Example 1 (FIG. 11)): significant anti-HIV effect; IL-18-induced NF-κB expression (NF-κB): reduced
2 | AVFLM: short peptide related to C-terminal pentapeptide of AAT | more or less similar effect | 
3 | FAFLM: short peptide related to C-terminal pentapeptide of AAT | more or less similar effect | 
4 | FIIMI: short peptide related to C-terminal pentapeptide of AAT | more or less similar effect | 
5 | FLFAV: short peptide related to C-terminal pentapeptide of AAT | more or less similar effect | 
6 | FLFCI: short peptide related to C-terminal pentapeptide of AAT | more or less similar effect | 
7 | FLFFI: short peptide related to C-terminal pentapeptide of AAT | more or less similar effect | 
8 | FLFLI: short peptide related to C-terminal pentapeptide of AAT | more or less similar effect | 
9 | FLFVL: short peptide related to C-terminal pentapeptide of AAT | more or less similar effect | 
10 | FLFVV: short peptide related to C-terminal pentapeptide of AAT | more or less similar effect | 
11 | FLMFI: short peptide related to C-terminal pentapeptide of AAT | more or less similar effect | 
12 | FLMII: short peptide related to C-terminal pentapeptide of AAT | more or less similar effect | 
13 | FLVFI: short peptide related to C-terminal pentapeptide of AAT | more or less similar effect | 
14 | FMLLI: short peptide related to C-terminal pentapeptide of AAT | more or less similar effect | 
15 | FVALM: short peptide related to C-terminal pentapeptide of AAT | more or less similar effect | 
16 | FVFAM: short peptide related to C-terminal pentapeptide of AAT | more or less similar effect | 
17 | FVFLA: short peptide related to C-terminal pentapeptide of AAT | more or less similar effect | 
18 | FVFLM: short peptide related to C-terminal pentapeptide of AAT | more or less similar effect | 
19 | FVYLI: carboxyterminal peptide derived but not necessarily identical to a respective C-terminal pentapeptide from AAT | more or less similar effect | 
20 | Prolastin: commercially available purified variant of AAT sold by Bayer, used as control AAT preparation |  | anti-HIV activity ([1]; doses comparable to the composition of the invention (FIG. 6)): fails to display anti-HIV activity
21 | B1 |  | concentration range of dose-dependent inhibition of syncytium formation [3]: 0.1 to 1 mM
